Laboratory results taken from patent USRE49022E1, “Insecticidal compounds” (SYNGENTA PARTICIPATIONS AG, priority 2013, dated 2022).

Experiments:
Assay type in all cases: in vivo
[1] = tested on: Thrips tabaci (Onion Thrips); assay: Thrips tabaci, sunflower leaf disc spray test; conditions: foliar, 168 h, sprayed sunflower leaf discs, mortality after 7 days
[2] = tested on: Myzus persicae (Green Peach Aphid); assay: Myzus persicae, sucrose solution / Parafilm test; conditions: 120 h, mixed with sucrose solution under Parafilm, mortality 5 days after infestation
Outline: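 Compounds mixed into sucrose solution at 12.5 ppm, sealed under stretched Parafilm, with aphid-infested pea seedlings placed on the Parafilm and the plate inverted so aphids feed through the membrane. Mortality assessed 5 days after infestation.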

[3] = tested on: Plutella xylostella (Diamond Back Moth); assay: Plutella xylostella, artificial diet MTP test; conditions: 144 h, 200 ppm (concentration in well 18 ppm), L2 larvae, 6 days
Outline: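 Artificial diet treated at 200 ppm application rate (18 ppm in well), dried, then infested with 7–12 L2 larvae per well. Larval mortality and growth regulation assessed after 6 days.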

[4] = tested on: Spodoptera littoralis (Egyptian Cotton Leafworm); assay: Spodoptera littoralis, cotton leaf disc spray test; conditions: foliar, 72 h, sprayed cotton leaf discs, L1 larvae, 3 days after treatment
Description: Cotton leaf discs were placed on agar in a 24-well microtiter plate and sprayed with test solutions at an application rate of 200 ppm. After drying, the leaf discs were infested with 5 L1 larvae. The samples were checked for mortality 3 days after treatment (DAT).

[5] = tested on: Myzus persicae (Green Peach Aphid); assay: Myzus persicae, sunflower leaf disc spray test; conditions: foliar, 144 h, sprayed sunflower leaf discs, aphid population of mixed ages, mortality after 6 DAT
Description: Sunflower leaf discs were placed on agar in a 24-well microtiter plate and sprayed with test solutions at an application rate of 200 ppm. After drying, the leaf discs were infested with an aphid population of mixed ages. After an incubation period of 6 DAT, samples were checked for mortality.

[6] = tested on: Spodoptera littoralis (Egyptian Cotton Leaf Worm); assay: Spodoptera littoralis, agar / lettuce root uptake test; conditions: 144 h, mixed with agar, uptake by lettuce roots, mortality 6 days after infestation
Description: Test compounds were applied by pipette into 24 well plates and mixed with agar. Application rate: 12.5 ppm. Lettuce seeds were placed on the agar and the multi well plate is closed by another plate which contains also agar. After 7 days the roots have absorbed the compound and the lettuce has grown into the lid plate. The lettuce leafs were now cut off into the lid plate. Spodoptera eggs were pipetted through a plastic stencil on a humid gel blotting paper and the plate closed with it. The samples are checked for mortality 6 days after infestation.

[7] = tested on: Tetranychus urticae (Two-Spotted Spider Mite); assay: Tetranychus urticae, bean leaf disc spray test; conditions: foliar, 192 h, sprayed bean leaf discs, mite populations of mixed ages, 8 days
Description: Bean leaf discs on agar in 24-well microtiter plates were sprayed with test solutions at an application rate of 200 ppm. After drying, the leaf discs are infested with mite populations of mixed ages. 8 days later, discs were checked for mortality.

[8] = tested on: Diabrotica balteata (Corn Root Worm); assay: Diabrotica balteata, artificial diet MTP test; conditions: 120 h, 200 ppm (concentration in well 18 ppm), L2 larvae, larval mortality after 5 days
Outline: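 Artificial diet treated with test solution at 200 ppm application rate (18 ppm in well), dried, then infested with L2 larvae (6-10 per well). Larval mortality checked after 5 days of incubation.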

CCc1cc(C(F)(C(F)(F)F)C(F)(F)Cl)cc(Br)c1NC(=O)c1cccc(N(CC)C(=O)c2ccc[n+]([O-])c2)c1OC (stereo not drawn) [Compound 50]
≥ 80%: pest or weed control at 200 ppm [1] | pest or weed control at 12.5 ppm [2] | mortality at 200 ppm [3] | mortality at 200 ppm [4] | pest or weed control at 200 ppm [5] | pest or weed control at 12.5 ppm [6] | mortality at 200 ppm [7] | pest or weed control at 200 ppm [8]

CCN(C(=O)c1ccncc1)c1cccc(C(=O)Nc2c(Br)cc(C(F)(C(F)(F)F)C(F)(F)Br)cc2OC(F)F)c1OC (stereo not drawn) [Compound 9]
≥ 80%: pest or weed control at 200 ppm [1] | pest or weed control at 12.5 ppm [2] | mortality at 200 ppm [3] | mortality at 200 ppm [4] | pest or weed control at 200 ppm [5] | pest or weed control at 12.5 ppm [6] | mortality at 200 ppm [7] | pest or weed control at 200 ppm [8]

CCN(C(=O)c1ccc(C#N)cc1)c1cccc(C(=O)Nc2c(Cl)cc(C(F)(C(F)(F)F)C(F)(F)Br)cc2Br)c1OC (stereo not drawn) [Compound 1, N-[2-bromo-4-[1-[bromo(difluoro)methyl]-1,2,2,2-tetrafluoro-ethyl]-6-chloro-phenyl]-3-[(4-cyanobenzoyl)-ethyl-amino]-2-methoxy-benzamide]
≥ 80%: pest or weed control at 200 ppm [1] | pest or weed control at 12.5 ppm [2] | mortality at 200 ppm [3] | mortality at 200 ppm [4] | pest or weed control at 200 ppm [5] | pest or weed control at 12.5 ppm [6] | mortality at 200 ppm [7] | pest or weed control at 200 ppm [8]

CCN(C(=O)c1ccc[n+]([O-])c1)c1cccc(C(=O)Nc2c(Br)cc(C(F)(C(F)(F)F)C(F)(F)Cl)cc2OC(F)F)c1OC (stereo not drawn) [Compound 48]
≥ 80%: pest or weed control at 200 ppm [1] | pest or weed control at 12.5 ppm [2] | mortality at 200 ppm [3] | mortality at 200 ppm [4] | pest or weed control at 200 ppm [5] | pest or weed control at 12.5 ppm [6] | mortality at 200 ppm [7] | pest or weed control at 200 ppm [8]

COc1c(NC(=O)c2ccncc2)cccc1C(=O)Nc1c(Br)cc(C(F)(C(F)(F)F)C(F)(F)Cl)cc1OC(F)F (stereo not drawn) [Compound 14]
≥ 80%: pest or weed control at 200 ppm [1] | pest or weed control at 12.5 ppm [2] | mortality at 200 ppm [3] | mortality at 200 ppm [4] | pest or weed control at 200 ppm [5] | pest or weed control at 12.5 ppm [6] | mortality at 200 ppm [7] | pest or weed control at 200 ppm [8]

CCN(C(=O)c1cccnc1)c1cccc(C(=O)Nc2c(Br)cc(C(F)(C(F)(F)F)C(F)(F)Cl)cc2OC(F)F)c1F (stereo not drawn) [Compound 39]
≥ 80%: pest or weed control at 200 ppm [1] | pest or weed control at 12.5 ppm [2] | mortality at 200 ppm [3] | mortality at 200 ppm [4] | pest or weed control at 200 ppm [5] | pest or weed control at 12.5 ppm [6] | mortality at 200 ppm [7] | pest or weed control at 200 ppm [8]

CCN(C(=O)c1cc[n+]([O-])cc1)c1cccc(C(=O)Nc2c(Br)cc(C(F)(C(F)(F)F)C(F)(F)Cl)cc2OC(F)F)c1F (stereo not drawn) [Compound 43]
≥ 80%: pest or weed control at 200 ppm [1] | pest or weed control at 12.5 ppm [2] | mortality at 200 ppm [3] | mortality at 200 ppm [4] | pest or weed control at 200 ppm [5] | pest or weed control at 12.5 ppm [6] | mortality at 200 ppm [7] | pest or weed control at 200 ppm [8]

COc1c(NC(=O)c2ccncc2)cccc1C(=O)Nc1c(Cl)cc(C(F)(C(F)(F)F)C(F)(F)Br)cc1Br (stereo not drawn) [Compound 3, N-[3-[[2-bromo-4-[1-[bromo(difluoro)methyl]-1,2,2,2-tetrafluoro-ethyl]-6-chloro-phenyl]carbamoyl]-2-methoxy-phenyl]pyridine-4-carboxamide]
≥ 80%: pest or weed control at 200 ppm [1] | pest or weed control at 12.5 ppm [2] | mortality at 200 ppm [3] | mortality at 200 ppm [4] | pest or weed control at 200 ppm [5] | pest or weed control at 12.5 ppm [6] | mortality at 200 ppm [7] | pest or weed control at 200 ppm [8]

CCN(C(=O)c1ccc(C#N)cc1)c1cccc(C(=O)Nc2c(Br)cc(C(F)(C(F)(F)F)C(F)(F)Cl)cc2OC(F)F)c1OC (stereo not drawn) [Compound 32]
≥ 80%: pest or weed control at 200 ppm [1] | pest or weed control at 12.5 ppm [2] | mortality at 200 ppm [3] | mortality at 200 ppm [4] | pest or weed control at 200 ppm [5] | pest or weed control at 12.5 ppm [6] | mortality at 200 ppm [7] | pest or weed control at 200 ppm [8]
